# Source: patent publication US20260297080A1, “BICYCLIC COMPOUNDS AS CDK INHIBITORS” (BeOne Medicines I GmbH, priority 2022, published 2026)
# What was measured:
# CDK1/Cyclin B1 = CDK1/Cyclin B1 (Homo sapiens, UniProt P06493); assay: CDK1/Cyclin B1 Biochemical Assay (TR-FRET), 0.015 mM ATP; conditions: 0.15 μM Rb (Ser780)-biotin substrate, pH7.0, 60 min preincubation, 120 min reaction, room temperature
# Summary of the method: (§1)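 TR-FRET readout: 665/620 nm ratio from Eu-cryptate anti-pRb(Ser780) antibody plus streptavidin-XL665, converted to % inhibition and fitted (4-parameter logistic) for IC50. Reactions used 0.15 μM biotinylated Rb (Ser780) substrate, compound 0–10 μM, 60 min enzyme–compound preincubation, then 120 min reaction at room temperature.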
# CDK2/Cyclin E1 = CDK2/Cyclin E1 (Homo sapiens, UniProt P24941); assay: CDK2/Cyclin E1 Biochemical Assay (TR-FRET), 0.060 mM ATP; conditions: 0.15 μM Rb (Ser780)-biotin substrate, pH7.0, 60 min preincubation, 120 min reaction, room temperature
# Summary of the method: as §1
# CDK1/Cyclin B1, sequence (P06493 whole entry): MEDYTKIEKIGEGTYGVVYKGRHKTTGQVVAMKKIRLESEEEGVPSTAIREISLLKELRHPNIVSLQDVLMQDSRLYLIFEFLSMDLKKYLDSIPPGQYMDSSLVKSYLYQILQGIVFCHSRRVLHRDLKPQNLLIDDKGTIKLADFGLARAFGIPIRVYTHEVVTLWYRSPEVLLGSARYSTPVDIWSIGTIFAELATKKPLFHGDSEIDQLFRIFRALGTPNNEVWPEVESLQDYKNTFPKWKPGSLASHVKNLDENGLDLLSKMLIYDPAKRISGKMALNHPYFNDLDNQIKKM
# CDK1/Cyclin B1, sequence (P14635 whole entry partner): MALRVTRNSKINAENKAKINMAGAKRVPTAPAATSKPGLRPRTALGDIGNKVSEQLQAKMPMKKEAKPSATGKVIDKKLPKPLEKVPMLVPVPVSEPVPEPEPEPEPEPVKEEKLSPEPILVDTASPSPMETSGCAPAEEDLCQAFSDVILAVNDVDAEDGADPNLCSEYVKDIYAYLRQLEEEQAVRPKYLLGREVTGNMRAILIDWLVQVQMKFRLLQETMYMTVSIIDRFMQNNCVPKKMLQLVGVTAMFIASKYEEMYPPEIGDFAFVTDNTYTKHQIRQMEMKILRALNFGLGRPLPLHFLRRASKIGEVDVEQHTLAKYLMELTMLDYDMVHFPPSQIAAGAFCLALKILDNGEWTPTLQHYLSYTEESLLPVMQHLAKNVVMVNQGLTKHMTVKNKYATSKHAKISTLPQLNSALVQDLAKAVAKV
Structure (SMILES),IC50 (CDK1/Cyclin B1),IC50 (CDK2/Cyclin E1)
"CC1(O)CCN(C(=O)O[C@H]2CC[C@@H](c3cc(Nc4ccc5c(c4)CNS5(=O)=O)n[nH]3)C2)C1 (relative stereo) [Example 176, cis-3-(3-((1,1-dioxido-2,3-dihydrobenzo[d]isothiazol-5-yl)amino)-1H-pyrazol-5-yl)cyclopentyl 3-hydroxy-3-methylpyrrolidine-1-carboxylate]",230 nM,8 nM
"CC1(NC(=O)O[C@H]2CC[C@@H](c3cc(Nc4ccc5c(c4)CNS5(=O)=O)n[nH]3)C2)CC1 (relative stereo) [Example 177, cis-3-(3-((1,1-dioxido-2,3-dihydrobenzo[d]isothiazol-5-yl)amino)-1H-pyrazol-5-yl)cyclopentyl(1-methylcyclopropyl)carbamate]",27 nM,1.1 nM
"CCCNC(=O)O[C@H]1CC[C@@H](c2cc(Nc3ccc4c(c3)CNS4(=O)=O)n[nH]2)C1 (relative stereo) [Example 178, cis-3-(3-((1,1-dioxido-2,3-dihydrobenzo[d]isothiazol-5-yl)amino)-1H-pyrazol-5-yl)cyclopentyl propylcarbamate]",41 nM,1.5 nM
"CC(C)NC(=O)O[C@H]1CC[C@@H](c2cc(Nc3cc(F)c4c(c3)S(=O)(=O)NC4)n[nH]2)C1 (relative stereo) [Example 179, cis-3-(3-((4-fluoro-1,1-dioxido-2,3-dihydrobenzo[d]isothiazol-6-yl)amino)-1H-pyrazol-5-yl)cyclopentyl isopropylcarbamate]",5.5 nM,0.3 nM
"COc1c(Nc2cc([C@@H]3CC[C@H](OC(=O)NC(C)C)C3)[nH]n2)ccc2c1S(=O)(=O)NC2 (relative stereo) [Example 180, cis-3-(3-((7-methoxy-1,1-dioxido-2,3-dihydrobenzo[d]isothiazol-6-yl)amino)-1H-pyrazol-5-yl)cyclopentyl isopropylcarbamate]",102 nM,2.9 nM
"COc1c(Nc2cc([C@@H]3CC[C@H](OC(=O)NC(C)C)C3)[nH]n2)ccc2c1S(=O)(=O)NC2(C)C (relative stereo) [Example 181, cis-3-(3-((7-methoxy-3,3-dimethyl-1,1-dioxido-2,3-dihydrobenzo[d]isothiazol-6-yl)amino)-1H-pyrazol-5-yl)cyclopentyl isopropylcarbamate]",1250 nM,58 nM
"COc1cc2c(cc1Nc1cc([C@@H]3CC[C@H](OC(=O)NC(C)C)C3)[nH]n1)S(=O)(=O)NC2 (relative stereo) [Example 182, cis-3-(3-((5-methoxy-1,1-dioxido-2,3-dihydrobenzo[d]isothiazol-6-yl)amino)-1H-pyrazol-5-yl)cyclopentyl isopropylcarbamate]",5580 nM,279 nM
"COc1cc2c(cc1Nc1cc([C@@H]3CC[C@H](OC(=O)NC(C)C)C3)[nH]n1)S(=O)(=O)NC2(C)C (relative stereo) [Example 183, cis-3-(3-((5-methoxy-3,3-dimethyl-1,1-dioxido-2,3-dihydrobenzo[d]isothiazol-6-yl)amino)-1H-pyrazol-5-yl)cyclopentyl isopropylcarbamate]",7570 nM,1390 nM
"CC(C)NC(=O)O[C@H]1CC[C@@H](c2cc(Nc3cc(Cl)c4c(c3)S(=O)(=O)NC4)n[nH]2)C1 (relative stereo) [Example 184, cis-3-(3-((4-chloro-1,1-dioxido-2,3-dihydrobenzo[d]isothiazol-6-yl)amino)-1H-pyrazol-5-yl)cyclopentyl isopropylcarbamate]",4.1 nM,1.5 nM
"Cc1cc2c(cc1Nc1cc([C@@H]3CC[C@H](OC(=O)NC(C)C)C3)[nH]n1)S(=O)(=O)NC2 (relative stereo) [Example 185, cis-3-(3-((5-methyl-1,1-dioxido-2,3-dihydrobenzo[d]isothiazol-6-yl)amino)-1H-pyrazol-5-yl)cyclopentyl isopropylcarbamate]",1420 nM,239 nM
"CC1(NC(=O)O[C@H]2CC[C@@H](c3cc(Nc4ccc5c(c4F)S(=O)(=O)NC5)n[nH]3)C2)CC1 (relative stereo) [Example 187, cis-3-(3-((7-fluoro-1,1-dioxido-2,3-dihydrobenzo[d]isothiazol-6-yl)amino)-1H-pyrazol-5-yl)cyclopentyl(1-methylcyclopropyl)carbamate]",14 nM,0.7 nM
"CC[C@H](C)NC(=O)O[C@H]1CC[C@@H](c2cc(Nc3ccc4c(c3F)S(=O)(=O)NC4)n[nH]2)C1 (relative stereo) [Example 188, cis-3-(3-((7-fluoro-1,1-dioxido-2,3-dihydrobenzo[d]isothiazol-6-yl)amino)-1H-pyrazol-5-yl)cyclopentyl((S)-sec-butyl)carbamate]",29 nM,0.8 nM
"CC(C)NC(=O)O[C@H]1CC[C@@H](c2cc(Nc3ccc4c(c3F)S(=O)(=O)N(C)C4)n[nH]2)C1 (relative stereo) [Example 190, cis-3-(3-((7-fluoro-2-methyl-1,1-dioxido-2,3-dihydrobenzo[d]isothiazol-6-yl)amino)-1H-pyrazol-5-yl)cyclopentyl isopropylcarbamate]",328 nM,8.1 nM

# The remaining lines, values ahead:
IC50 (CDK1/Cyclin B1),IC50 (CDK2/Cyclin E1),Structure (SMILES)
191 nM,9.3 nM,"COCCN1Cc2ccc(Nc3cc([C@@H]4CC[C@H](OC(=O)NC(C)C)C4)[nH]n3)c(F)c2S1(=O)=O (relative stereo) [Example 191, cis-3-(3-((7-fluoro-2-(2-methoxyethyl)-1,1-dioxido-2,3-dihydrobenzo[d]isothiazol-6-yl)amino)-1H-pyrazol-5-yl)cyclopentyl isopropylcarbamate]"
116 nM,6 nM,"CC(C)NC(=O)O[C@H]1CC[C@@H](c2cc(Nc3ccc4c(c3F)S(=O)(=O)N(CCO)C4)n[nH]2)C1 (relative stereo) [Example 192, cis-3-(3-((7-fluoro-2-(2-hydroxyethyl)-1,1-dioxido-2,3-dihydrobenzo[d]isothiazol-6-yl)amino)-1H-pyrazol-5-yl)cyclopentyl isopropylcarbamate]"
362 nM,16 nM,"CC(C)NC(=O)O[C@H]1CC[C@@H](c2cc(Nc3ccc4c(c3F)S(=O)(=O)N(C(C)C)C4)n[nH]2)C1 (relative stereo) [Example 193, cis-3-(3-((7-fluoro-2-isopropyl-1,1-dioxido-2,3-dihydrobenzo[d]isothiazol-6-yl)amino)-1H-pyrazol-5-yl)cyclopentyl isopropylcarbamate]"
86 nM,3.7 nM,"CC(C)NC(=O)O[C@H]1CC[C@@H](c2cc(Nc3ccc4c(c3)C(C)(C)S(=O)(=O)N4)n[nH]2)C1 (relative stereo) [Example 194, cis-3-(3-((3,3-dimethyl-2,2-dioxido-1,3-dihydrobenzo[c]isothiazol-5-yl)amino)-1H-pyrazol-5-yl)cyclopentyl isopropylcarbamate]"
47 nM,4.3 nM,"CN1c2ccc(Nc3cc([C@@H]4CC[C@H](OC(=O)NC5CCC56CC6)C4)[nH]n3)cc2CS1(=O)=O (relative stereo) [Example 196, cis-3-(3-((1-methyl-2,2-dioxido-1,3-dihydrobenzo[c]isothiazol-5-yl)amino)-1H-pyrazol-5-yl)cyclopentyl spiro[2.3]hexan-4-ylcarbamate]"
119 nM,12 nM,"COCC(C)NC(=O)O[C@H]1CC[C@@H](c2cc(Nc3ccc4c(c3)CS(=O)(=O)N4)n[nH]2)C1 (relative stereo) [Example 197, cis-3-(3-((2,2-dioxido-1,3-dihydrobenzo[c]isothiazol-5-yl)amino)-1H-pyrazol-5-yl)cyclopentyl(1-methoxypropan-2-yl)carbamate]"
75 nM,18 nM,"O=C(NCCC(F)(F)F)O[C@@H]1CC[C@H](c2cc(Nc3ccc4c(c3)CS(=O)(=O)N4)n[nH]2)C1 (relative stereo) [Example 198, cis-3-(3-((2,2-dioxido-1,3-dihydrobenzo[c]isothiazol-5-yl)amino)-1H-pyrazol-5-yl)cyclopentyl(3,3,3-trifluoropropyl)carbamate]"
84 nM,5.5 nM,"CC(C)NC(=O)O[C@H]1CC[C@@H](c2cc(Nc3ccc4c(c3)C3(CCC3)S(=O)(=O)N4)n[nH]2)C1 (relative stereo) [Example 199, cis-3-(3-((2,2-dioxido-1H-spiro[benzo[c]isothiazole-3,1′-cyclobutan]-5-yl)amino)-1H-pyrazol-5-yl)cyclopentyl isopropylcarbamate]"
75 nM,5.5 nM,"CC(C)NC(=O)O[C@H]1CC[C@@H](c2cc(Nc3ccc4c(c3)C3(CC3)S(=O)(=O)N4)n[nH]2)C1 (relative stereo) [Example 200, cis-3-(3-((2,2-dioxido-1H-spiro[benzo[c]isothiazole-3, 1′-cyclopropan]-5-yl)amino)-1H-pyrazol-5-yl)cyclopentyl isopropylcarbamate]"
130 nM,11 nM,"CC(C)NC(=O)O[C@H]1CC[C@@H](c2cc(Nc3ccc4c(c3)C3(CC3)S(=O)(=O)N4C)n[nH]2)C1 (relative stereo) [Example 201, cis-3-(3-((1-methyl-2,2-dioxido-1H-spiro[benzo[c]isothiazole-3,l′-cyclopropan]-5-yl)amino-1H-pyrazol-5-yl)cyclopentyl isopropylcarbamate]"
98 nM,6.2 nM,"CC(C)NC(=O)O[C@H]1CC[C@@H](c2cc(Nc3ccc4c(c3)CS(=O)(=O)N4C(C)C)n[nH]2)C1 (relative stereo) [Example 202, cis-3-(3-((1-isopropyl-2,2-dioxido-1,3-dihydrobenzo[c]isothiazol-5-yl)amino)-1H-pyrazol-5-yl)cyclopentyl isopropylcarbamate]"
